Measurements as given in patent US20250101009A1, “Compounds, Compositions and Methods for Treatment of Age-Related Ocular Disorders” (priority 2022, published 2025).

How the values were obtained:
acetylcholinesterase = target: T1, acetylcholinesterase (Homo sapiens, UniProt P22303); assay: Hydrolysis study in vitro with acetylcholinesterase (HPLC); assay type: in vitro ADME; conditions: for assay of compound remaining during enzymatic hydrolysis: acetylcholinesterase 2.0 mg/ml, simulated tear pH 7.4, 37.5° C.
T1 construct: purchased
T1 sequence (P22303 32-614, species assumed): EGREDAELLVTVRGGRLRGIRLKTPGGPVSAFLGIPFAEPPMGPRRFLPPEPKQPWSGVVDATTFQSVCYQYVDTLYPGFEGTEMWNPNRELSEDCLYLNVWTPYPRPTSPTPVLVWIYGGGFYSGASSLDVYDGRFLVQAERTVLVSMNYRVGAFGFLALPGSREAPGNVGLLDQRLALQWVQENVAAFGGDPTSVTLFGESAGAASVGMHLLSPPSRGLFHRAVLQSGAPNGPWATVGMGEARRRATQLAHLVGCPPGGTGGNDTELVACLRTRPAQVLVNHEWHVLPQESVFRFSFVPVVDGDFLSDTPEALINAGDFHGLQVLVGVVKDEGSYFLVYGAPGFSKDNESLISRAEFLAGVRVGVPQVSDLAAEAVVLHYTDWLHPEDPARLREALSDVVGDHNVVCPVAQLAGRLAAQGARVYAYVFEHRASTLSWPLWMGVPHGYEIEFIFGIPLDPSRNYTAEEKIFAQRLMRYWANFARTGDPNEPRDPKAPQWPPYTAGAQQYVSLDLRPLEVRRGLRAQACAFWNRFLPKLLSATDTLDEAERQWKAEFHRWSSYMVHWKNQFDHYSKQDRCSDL
Procedure: The commercial esterase was dissolved in simulated tear (pH 7.4). Dissolving an appropriate amount of the compounds of the invention in solvent. The stock solutions were kept in screw-capped vials at 4° C. The reaction was initiated by adding stock solution of the prodrug to preheated esterase solution in a screw-capped vial at 37.5° C. The solution was kept in a water bath at 37.5° C. and at appropriate time intervals. 20 mL aliquot was taken and, after filtration using membrane syringe filter, analyzed immediately by HPLC.
The tear fluid was prepared by dissolving sodium chloride (0.67%, w/v), sodium bicarbonate (0.2% w/v) and calcium chloride dihydrate (0.008% w/v) in water and pH was adjusted to 7.4.
(§1) The acetylcholinesterase was dissolved in simulated tear (pH 7.4) to give a concentration of 2.0 mg/ml. Dissolving the appropriate number of compound 1 in pH 7.0 buffer solution to obtain a concentration of […]. The stock solutions were kept in screw-capped vials at 4° C. The reaction was initiated by adding 20 uL of a stock solution of the compound 1 in pH 7.0 buffer solution to 1 ml of preheated esterase solution in a screw-capped vial at 37.5° C., for a total of 10 identical reaction solutions. The reaction solutions were kept in a water bath at 37.5° C. and at 20 min intervals an aliquot was taken and, after filtration using membrane syringe filter, analyzed immediately by HPLC.
as §1, with “compound 2” for “compound 1”, “20 μL” for “20 uL”, “of 11” for “of 10”
as §1, with “compound 3” for “compound 1”, “20 μL” for “20 uL”, “1 mL” for “1 ml”, “of 12” for “of 10”

rabbit pupil = assay: Miotic effect in rabbits (pupil diameter); assay type: in vivo, male New Zealand White rabbits
Procedure: The ocular activity evaluation based on the miotic effect in rabbits
The pupil size was determined for several compounds in male New Zealand White rabbits. Pilocarpine hydrochloride (Vuity™) was used as positive control. The pupillometer was placed in the eye socket of the rabbit, and the camera was taken 0 min before and 5 min, 10 min, 15 min, 30 min, 45 min and 1 h after dosing. For the latter picture, take three photos at each time point. After the experiment, the pictures were sorted out to observe the pupil change trend after dosing. This method can be used to evaluate whether the miotic agent moiety in the compounds of the invention can constrict the rabbit's pupil.
Under a constant light source (light intensity 40 Lux), the rabbits were fixed in the rabbit box without anesthesia. Before the experiment, the pupil diameter (mm) before drug administration was measured with a pupil measuring ruler and photographed. […] The time of administration was recorded, and the pupil diameter was measured with a pupillometer and photographed with Canon EOS M6 Mark II (SLR) after 5 min, 10 min, 15 min, 30 min, 45 min, 1 h, 2 h, 3 h, 4 h and 5 h, respectively. […]

[1] = assay decreased more with increasing time

| SMILES | assay of compound remaining during enzymatic hydrolysis (acetylcholinesterase; 0 min) | assay of compound remaining during enzymatic hydrolysis (acetylcholinesterase; 20 min) | assay of compound remaining during enzymatic hydrolysis (acetylcholinesterase; 40 min) | assay of compound remaining during enzymatic hydrolysis (acetylcholinesterase; 60 min) | assay of compound remaining during enzymatic hydrolysis (acetylcholinesterase; 80 min) | assay of compound remaining during enzymatic hydrolysis (acetylcholinesterase; 100 min) | assay of compound remaining during enzymatic hydrolysis (acetylcholinesterase; 120 min) | assay of compound remaining during enzymatic hydrolysis (acetylcholinesterase; 140 min) | assay of compound remaining during enzymatic hydrolysis (acetylcholinesterase; 160 min) | assay of compound remaining during enzymatic hydrolysis (acetylcholinesterase; 180 min) | assay of compound remaining during enzymatic hydrolysis (acetylcholinesterase; 200 min) | assay of compound remaining during enzymatic hydrolysis (acetylcholinesterase; 220 min) | assay of compound remaining during enzymatic hydrolysis (acetylcholinesterase; 240 min) | hydrolysis by acetylcholinesterase (in words) (acetylcholinesterase; [1]) | hydrolysis by acetylcholinesterase (in words) (acetylcholinesterase; after 200 minutes) | rabbit pupil under treatment (recorded images) (rabbit pupil) | miotic effect in rabbits versus positive control (rabbit pupil; 1.25%, 20 μL/eye topical, compared with Vuity 1.25%) |
| --- | --- | --- | --- | --- | --- | --- | --- | --- | --- | --- | --- | --- | --- | --- | --- | --- | --- |
| CC[C@@H]1C(=O)OC[C@@H]1Cc1c[n+](CCOCCOCCOC(=O)CCCC[C@@H]2CCSS2)cn1C [Compound 3, 3-(2-(2-(2-((5-((R)-1,2-dithiolan-3-yl)pentanoyl)oxy)ethoxy)ethoxy)ethyl)-5-(((3R,4S)-4-ethyl-5-oxotetrahydrofuran-3-yl)methyl)-1-methyl-1H-imidazol-3-ium] | 95.40% | 88.83% | 88.26% | 79.40% | 75.30% | 70.87% | 68.62% | 63.48% | 62.92% | 59.60% | 54.50% | 55.89% | 51.61% | hydrolyzed by acetylcholinesterase |  |  |  |
| CC[C@@H]1C(=O)OC[C@@H]1Cc1c[n+](CCOC(=O)CCCC[C@@H]2CCSS2)cn1C [Compound 2, 3-(2-((5-((R)-1,2-dithiolan-3-yl)pentanoyl)oxy)ethyl)-5-(((3R,4S)-4-ethyl-5-oxotetrahydrofuran-3-yl)methyl)-1-methyl-1H-imidazol-3-ium chloride] | 100.00% | 95.69% | 88.08% | 86.47% | 80.61% | 77.56% | 75.40% | 72.81% | 68.28% | 65.90% | 63.68% | 60.88% |  | hydrolyzed by acetylcholinesterase |  |  |  |
| CC[C@@H]1C(=O)OC[C@@H]1Cc1c[n+](COC(=O)CCCC[C@@H]2CCSS2)cn1C [Compound 1, 3-(((5-((R)-1,2-dithiolan-3-yl)pentanoyl)oxy)methyl)-5-(((3R,4S)-4-ethyl-5-oxotetrahydrofuran-3-yl)methyl)-1-methyl-1H-imidazol-3-ium chloride] | 70.29% | 56.17% | 34.03% | 30.13% | 19.93% | 17.19% | 15.06% | 11.77% | 8.45% | 6.94% | 5.05% |  |  |  | hydrolyzed by acetylcholinesterase almost completely | shrinking | comparable to the positive control drug |
